Test results from patent US20250312320A1, “METHOD AND TREATMENT FOR OSTEOARTHRITIS AND DISEASES OF CHONDROCYTE HYPERTROPHY” (The Royal Veterinary College, priority 2022, published 2025).
“Also recorded” adds a separate entry of the source.

Legend:
[1] = test system: THP-1 derived macrophages; experiment: LPS stimulated THP-1 derived macrophages: gene expression; assay type: cell-based, human; details: 1 μM, 1 h pretreatment + 24 h LPS
Procedure: THP-1 monocytes were differentiated into macrophages via treatment with 50 ng/ml phorbol 12-myristate 13-acetate (PMA) in THP-1 growth media (RPMI-1640, 100 μg/ml Primocin, 10% FBS, 0.05 mM β-mercaptoethanol) for 48 hours. Macrophages were then washed twice to remove PMA containing media before a 1-hour pretreatment with 1 μM BI1347 or 100 nM MSC2530818. Inflammatory stimulation was then initiated via the addition of lug/ml lipopolysaccharide (LPS) for 24 hours in the presence of 1 μM BI1347 or 100 nM MSC2530818. Gene expression analysis was subsequently carried out as previously outlined. For MSC2530818 treated/LPS stimulated cells, media supernatant was used for IL-1β cytokine analysis quantification via ELISA (PeproTech, ABTS Human IL-1β development ELISA) as per manufacturer instructions.

ATDC5 micromasses = experiment: Epigenetic library screen on miniaturised ATDC5 micromasses (alcian blue / alizarin red); assay type: cell-based, mouse
Text: An epigenetic library consisting of 226 known epigenetic modulator compounds was used to screen against ATDC5 high density micromass cultures to identify any compounds that have an inhibitory effect on matrix mineralisation (catabolic chondrocyte) whilst maintaining and/or promoting healthy extracellular matrix deposition (anabolic chondrocyte). The opposite may be used for identifying molecules that accelerate endochondral ossification for fracture repair i.e. promotes matrix mineralisation.
In the developed screening method, 5.4×10^4 cells in a total volume of 2 μl standard growth media (DMEM-F12, 5% FBS, 1% Ab/Am 10 μg/ml human transferrin, 3×10^−8 M sodium selenite) were seeded onto single wells of a 96-well plate and incubated at 37° C., 5% CO2 in a humidified incubator for 2 hours to allow for cell adherence. 100 μl of differentiation media DMEM-F12, 5% FBS, 1% Ab/Am, 5 μg/ml human transferrin, 1×ITS) containing a single compound was added to each well.
Plates were seeded in duplicate to allow for observation each compound has on glycosaminoglycan and mineral deposition at the end of the culture. This enabled for one 96-well plate to screen up to 96 compounds individually. Multiple plates were set up at the same time allowing the entire library to be screened in parallel. […]
On day 14, culture plates were fixed with 95% ice-cold methanol for 25 minutes and each compound treated well stained with either 1% alcian blue pH 2.5, a stain for glycosaminoglycans indicative of healthy ECM or 1% alizarin red pH 4.2, a stain for mineralisation (calcium) indicative of chondrocyte hypertrophy observed in cartilage disease. Alcian blue stained wells were leached with 8M guanidine hydrochloride and alizarin red leached with 10% cetylpyridinium chloride to quantify staining by absorbance 650 nm and 570 nm, respectively. Leached stain absorbances were plotted on GraphPad Prism for each compound for both alizarin red and alcian blue. To identify hits, the alcian blue:alizarin red ratio was plotted and readings higher than the control group ratios were classified as hits. […]

[2] = test system: hypertrophic ATDC5 micromasses; experiment: Metabolic analysis (MitoStress Test, Seahorse XF) of hypertrophic ATDC5 micromasses; assay type: cell-based, mouse; details: 1 μM
Procedure: This higher dependency on glycolysis for energy production is linked to enhanced catabolic processes, therefore reducing glycolysis has been proposed as a therapeutic approach for OA (Tan et al. (2022) “A new strategy for osteoarthritis therapy: Inhibition of glycolysis”. Front Pharmacol. 2022 Nov. 10; 13:1057229. doi: 10.3389/fphar.2022.1057229.). To assess energy metabolism of hypertrophic ATDC5 cells in the presence of CDK8i, 2 μl micromasses were seeded onto a Seahorse XF HS Miniplate (Agilent). Micromasses were differentiated in the presence of MSC2530818 as previously described for 1 week before switching to mineralisation media containing MSC2530818 for 24 hours. The MitoStress Test (Agilent) was carried out on hypertrophic micromasses using 1.5 μM oligomycin, 0.5 μM […] and 0.25 μM FCCP which measured real-time extracellular acidification and oxygen consumption rate. Analysis via the Agilent Seahorse Analytics platform basal oxygen consumption rate and glycolysis measurements.

[3] = test system: STR/Ort mouse (spontaneous osteoarthritis); experiment: STR/Ort mouse pilot study: cartilage manifestations and gene expression markers; assay type: in vivo; details: 5 mg/kg oral gavage intermittently, 2 weeks
Procedure: The STR/Ort mouse is a spontaneous mouse model of osteoarthritis which follows a similar trajectory as primary osteoarthritis disease development as humans and companion animals. […] An initial pilot study consisting of 2 male STR/Ort mice aged 18 weeks per group was carried out. Mice were dosed 5 mg/kg […] (N=2) or DMSO (N=2) in 60% PEG400 via oral gavage 3 times a week intermittently for 2 weeks. On day 14, mice were sacrificed, and articular cartilage was harvested from the knee joint using a micro rongeur. Tissue was homogenised in Qiazol using 2.4 mm beads in pre-chilled Tissue Lyser II racks (Qiagen) at 30 Hz for 5 minutes in total with intervals for samples to be chilled on ice every 60 seconds to prevent sample heating. Homogenised samples were directly processed for RNA extraction using the Direct-Zol microprep kit (Zymo) and RNA was processed for gene expression analysis via qPCR as previous.

[4] = compound present 14 days, compared to negative control BI1374 and DMSO

| Compound | NF-κB gene expression, decrease vs DMSO [1] | TLR4 gene expression, decrease vs DMSO [1] | glycosaminoglycan (GAG) deposition (alcian blue) (ATDC5 micromasses; [4]) | mineralisation (alizarin red) (ATDC5 micromasses; [4]) | alcian blue:alizarin red absorbance ratio (hit identification) (ATDC5 micromasses; vs window of DMSO control ratios) | decrease in total basal glycolysis (inferred from OCR/ECAR measurements) vs DMSO [2] | extracellular acidification rate (ECAR) vs DMSO ([2]; across the time course measured) | total basal oxygen consumption rate (OCR) vs DMSO ([2]; p=0.5085) | gene expression of cartilage anabolic biomarkers ([3]; N=2, not powered for significance) | articular cartilage thickness (appearance post-dissection) ([3]; N=2, vs DMSO) | infiltration of blood vessels in articular cartilage ([3]; male aged 18 weeks, N=2, vs DMSO) |
| --- | --- | --- | --- | --- | --- | --- | --- | --- | --- | --- | --- |
| CN(C)C(=O)Cn1cc(-c2ccc(-c3cncc4ccccc34)cc2)cn1 [BI1347] | 6 fold | 9 fold | promotes glycosaminoglycan (GAG) deposition | reduces mineralisation | modulator of endochondral ossification | – | – | – | – | – | – |
| Cc1n[nH]c2ncc(C(=O)N3CCC[C@H]3c3ccc(Cl)cc3)cc12 [MSC2530818] | – | – | – | – | – | 37% | lower than DMSO control | no significant difference | increased; also recorded: increase in expression | appears thicker | absent; also recorded: not present |
